# Reference: ChEMBL document CHEMBL1145570, “Design and synthesis of 2-pyridones as novel inhibitors of the Bacillus anthracis enoyl-ACP reductase” (Bioorg Med Chem Lett, 2008)
# System: Bacillus anthracis
# Experiment: microbe, parasite or virus in culture
# Type: functional
# Conditions: dANR
row,SMILES,MIC [µg/mL]
1,COc1ccc(Cn2ccc(O)cc2=O)cc1,> 80
2,O=c1cc(O)ccn1Cc1ccccc1,> 80
3,CC(=O)Nc1ccc(Cn2ccc(OCc3ccccc3)cc2=O)c(Cl)c1,> 80
4,C#CCn1ccc(OCc2ccccc2)cc1=O,> 100
5,O=c1[nH]c(OCc2ccccc2)ccc1Cc1ccccc1,> 100
6,COc1ccc(Oc2ccccc2Cl)c(=O)[nH]1,> 100
7,[O-][n+]1cc(Cl)ccc1Oc1ccc(Cl)cc1Cl,> 100
8,O=c1cc(OCc2ccccc2)ccn1Cc1ccccc1Cl,16
9,COc1ccc(Cn2ccc(OCCCn3c4ccccc4c4ccccc43)cc2=O)cc1,> 80
10,O=c1cc(OCc2cccc3ccccc23)ccn1Cc1ccccc1Cl,> 80
11,O=c1cc(OCCCn2c3ccccc3c3ccccc32)ccn1Cc1ccccc1,> 80
12,COc1ccc(Oc2ccc(Cl)cc2Cl)c(=O)[nH]1,> 100
13,Nc1ccc(Cn2ccc(OCc3ccccc3)cc2=O)c(Cl)c1,> 80
14,O=c1cc(OCc2ccccc2)ccn1Cc1ccc([N+](=O)[O-])cc1Cl,> 80
15,O=C(O)c1ccc(Cn2ccc(OCc3ccccc3)cc2=O)c(Cl)c1,> 80
16,NC(=O)c1ccc(Cn2ccc(OCc3ccccc3)cc2=O)c(Cl)c1,> 80
17,O=c1cc(OCc2ccc3ccccc3c2)ccn1Cc1ccccc1Cl,> 80
18,O=c1cc(OCCCn2nnc3ccccc32)ccn1Cc1ccccc1Cl,> 80
19,O=c1cc(OCCCn2ccnc2)ccn1Cc1ccccc1Cl,> 80
20,O=c1cc(OCCCn2ccc3ccccc32)ccn1Cc1ccccc1Cl,> 80
21,O=c1cc(O)ccn1Cc1ccc(O)cc1,> 80
22,O=c1cc(OCc2ccccc2)ccn1Cc1ccccc1,> 80
23,N#Cc1ccc(COc2ccn(Cc3ccccc3Cl)c(=O)c2)cc1,> 80
24,COc1ccc(Oc2ccccc2Cl)c[n+]1[O-],> 100
25,CCOC(=O)c1cc(Cn2ccc(OCc3ccccc3)cc2=O)on1,> 100
26,N#Cc1ccc(Cn2ccc(OCc3ccccc3)cc2=O)c(Cl)c1,> 80
27,O=c1cc(OCCCn2c3ccccc3c3ccccc32)ccn1Cc1ccccc1Cl,> 80
28,Oc1cc(Cl)ccc1Oc1ccc(Cl)cc1Cl [TRICLOSAN],3.1
